Activity calls are given as the source filed them.
Legend:
[1] = biological target: T1, Calpain-2 catalytic subunit (Sus scrofa, UniProt P43367); test: pig calpain II inhibitor potency, dose response, biochemical, fluorogenic peptide substrate (AID 1420); type: functional
T1 sequence (P43367 whole entry): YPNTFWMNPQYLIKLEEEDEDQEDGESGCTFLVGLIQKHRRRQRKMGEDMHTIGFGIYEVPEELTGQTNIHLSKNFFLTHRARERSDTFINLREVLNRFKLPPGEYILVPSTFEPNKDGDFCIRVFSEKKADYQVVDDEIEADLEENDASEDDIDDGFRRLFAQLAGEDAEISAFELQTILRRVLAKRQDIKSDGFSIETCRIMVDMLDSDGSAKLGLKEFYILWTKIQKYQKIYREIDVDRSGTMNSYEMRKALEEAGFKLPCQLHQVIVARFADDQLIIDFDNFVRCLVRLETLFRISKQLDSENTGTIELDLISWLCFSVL

[2] = inhibitors of firefly luciferase expression or activity, dose response, H4 neuroglioma cells, luminescence (AID 1990); type: functional, cell-based
[3] = Luminescence Cell-Based Dose Response HTS to Identify Inhibitors of 5'UTR Stem-Loop Driven Prion Protein mRNA Translation in H4 Neuroglioblastoma Cells. [Related pubchem assays: 1827 (Project Summary), 1813 (Primary HTS)]; type: functional
[4] = inhibitors of SNCA 5'UTR-driven reporter translation, confirmation, H4 neuroglioma cells, luminescence (AID 1988); type: functional, cell-based
[5] = C. albicans growth with fluconazole, confirmation, fluorescence, retest (AID 2467); type: functional, cell-based
[6] = microbe, parasite or virus in culture; type: functional; details: Mycobacterium tuberculosis
[7] = NIH-3T3 fibroblast cytotoxicity, dose response, cytotoxicity control, cell-based, fluorescence, Alamar Blue, secondary assay (AID 2327); type: functional;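 further: NIH-3T3 mouse fibroblasts cultured with fluconazole at 8 µg/mL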
[8] = inhibitors of HIV Env-driven cell fusion, dose response, cherry-pick (AID 652057); type: functional, cell-based
[9] = inhibitors of clade B AD8 Env fusion, dose response, cell-based, cherry-pick (AID 652062); type: functional;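 further: luciferase signal from cell-cell fusion driven by HIV-1 clade B AD8 Env; potency is for inhibitors of fusion seen as a drop in luminescence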
Fatty acid synthase [10] = biological target: T2, Fatty acid synthase (Homo sapiens, UniProt P49327); test: FAS thioesterase domain inhibitors, dose response, biochemical, kinetic fluorescence intensity (AID 624326); type: functional;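 further: rate of fluorescence rise from hydrolysis of a fluorogenic O-methyl fluorescein ester substrate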
Fatty acid synthase [11] = biological target: T2, Fatty acid synthase; test: FAS thioesterase domain inhibitors, dose response, biochemical, endpoint fluorescence intensity, uHTS hits (AID 624327); type: functional;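 further: fluorescence from hydrolysis of an O-methyl fluorescein acyl ester substrate by the enzyme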
cells = type: functional
[12] = biological target: T3, High affinity choline transporter 1 (Homo sapiens, UniProt Q9GZV3); test: CHT inhibitors, dose response, cell-based, 5-point CRC, membrane potential dye (AID 504840); type: functional
T3 sequence (Q9GZV3 whole entry): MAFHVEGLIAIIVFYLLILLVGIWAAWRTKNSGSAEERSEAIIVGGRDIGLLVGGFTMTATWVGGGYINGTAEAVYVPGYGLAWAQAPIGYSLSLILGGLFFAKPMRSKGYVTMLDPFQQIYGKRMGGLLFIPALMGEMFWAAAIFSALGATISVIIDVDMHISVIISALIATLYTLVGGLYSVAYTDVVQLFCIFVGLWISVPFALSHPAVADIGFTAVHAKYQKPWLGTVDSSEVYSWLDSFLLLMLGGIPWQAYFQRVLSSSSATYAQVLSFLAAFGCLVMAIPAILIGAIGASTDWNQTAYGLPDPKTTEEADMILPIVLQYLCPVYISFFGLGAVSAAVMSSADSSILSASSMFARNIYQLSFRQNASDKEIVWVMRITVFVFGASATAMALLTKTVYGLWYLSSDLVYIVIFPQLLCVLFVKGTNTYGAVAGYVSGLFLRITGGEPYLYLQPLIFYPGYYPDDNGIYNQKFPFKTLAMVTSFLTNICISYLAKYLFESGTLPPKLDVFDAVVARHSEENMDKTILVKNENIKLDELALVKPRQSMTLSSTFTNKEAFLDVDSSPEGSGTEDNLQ

[13] = test system: Streptococcus sp. 'group A'; test: growth inhibition of control SK(-) GAS strain, dose response, counter-screen for streptokinase expression inhibitor project, luminescence, kanamycin, BacTiterGlo, confirmation (AID 1900); type: functional, organism-based
Streptokinase A = biological target: T4, Streptokinase A (Streptococcus pyogenes serotype M1, UniProt P10520); test: S. pyogenes streptokinase expression inhibitors, potency, dose response, plasminogen activation absorbance, OD405 (AID 1914); type: functional, Streptococcus pyogenes M1 GAS;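 further: secreted streptokinase activity via plasminogen activation per viability signal from cell pellet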
T4 sequence (P10520 whole entry): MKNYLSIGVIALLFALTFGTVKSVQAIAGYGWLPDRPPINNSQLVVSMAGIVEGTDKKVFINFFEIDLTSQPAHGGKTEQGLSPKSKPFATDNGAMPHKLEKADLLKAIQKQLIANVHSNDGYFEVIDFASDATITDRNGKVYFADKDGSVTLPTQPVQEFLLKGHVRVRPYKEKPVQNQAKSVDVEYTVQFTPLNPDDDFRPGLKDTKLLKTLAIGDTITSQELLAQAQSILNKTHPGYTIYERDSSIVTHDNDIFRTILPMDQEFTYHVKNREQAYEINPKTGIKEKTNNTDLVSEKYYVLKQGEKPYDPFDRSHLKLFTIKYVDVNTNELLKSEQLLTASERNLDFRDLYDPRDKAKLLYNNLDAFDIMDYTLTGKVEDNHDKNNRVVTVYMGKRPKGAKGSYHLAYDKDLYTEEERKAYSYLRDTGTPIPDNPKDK

[14] = control 3'UTR Renilla luciferase suppression, dose response, counter-screen for Shn3 inhibitor project, cell-based, Clone20-Shn3RL, cherry-picked (AID 624133); type: functional
[15] = HepG2 cell cytotoxicity, dose response, cytotoxicity control for Shn3 inhibitor project, CellTiter-Glo, cherry-picked (AID 624134); type: functional, cell-based
[16] = biological target: Heat shock protein HSP 90-alpha (Homo sapiens, UniProt P07900); type: functional, organism-based
Streptococcus = test: Group A Streptococcus viability loss, dose response, counter-screen for streptokinase expression inhibitor project, luminescence, BacTiterGlo (AID 1915); type: functional, organism-based;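 further: potency for reduction of bacterial viability or growth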
[17] = Shn3 3'UTR reporter inhibitors, dose response, cell-based, Clone20 osteoblasts, firefly luciferase, cherry-picked (AID 624132); type: functional;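 further: firefly luciferase luminescence from reporter carrying the Shn3 3'UTR in osteoblasts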
Cytochrome P450 2D6 = Cytochrome P450 2D6 (Homo sapiens, UniProt P10635);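 further: CYP2D6 member of a cytochrome P450 panel assay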
[18] = biological target: T5, Carboxy-terminal domain RNA polymerase II polypeptide A small phosphatase 1 (Homo sapiens, UniProt Q9GZU7); test: inhibitors of CTDSP1, concentration-response testing, biochemical assay, absorbance-based, actives from ultra-high-throughput screening (AID 540297); type: functional
T5 sequence (Q9GZU7 whole entry): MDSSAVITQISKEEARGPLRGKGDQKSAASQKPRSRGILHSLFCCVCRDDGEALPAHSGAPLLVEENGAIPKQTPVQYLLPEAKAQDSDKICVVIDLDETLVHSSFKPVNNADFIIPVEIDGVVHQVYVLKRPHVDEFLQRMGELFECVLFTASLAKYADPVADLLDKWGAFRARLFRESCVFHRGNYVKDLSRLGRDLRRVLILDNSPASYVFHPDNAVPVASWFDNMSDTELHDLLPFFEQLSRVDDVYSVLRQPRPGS

[19] = biological target: T6, Heat shock factor protein 1 (Mus musculus, UniProt P38532); test: HSF1 potentiators in luciferase reporter cells, confirmation, cell-based, NIH3T3, luminescence, dose retest (AID 435004); type: functional;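 further: stress induced by proteasome inhibitor MG132 added 30 min after compound; luciferase reporter driven by HSF1 response element in NIH3T3 cells; actives raise luminescence as potentiators of the MG132 stress response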
T6 sequence (P38532 whole entry): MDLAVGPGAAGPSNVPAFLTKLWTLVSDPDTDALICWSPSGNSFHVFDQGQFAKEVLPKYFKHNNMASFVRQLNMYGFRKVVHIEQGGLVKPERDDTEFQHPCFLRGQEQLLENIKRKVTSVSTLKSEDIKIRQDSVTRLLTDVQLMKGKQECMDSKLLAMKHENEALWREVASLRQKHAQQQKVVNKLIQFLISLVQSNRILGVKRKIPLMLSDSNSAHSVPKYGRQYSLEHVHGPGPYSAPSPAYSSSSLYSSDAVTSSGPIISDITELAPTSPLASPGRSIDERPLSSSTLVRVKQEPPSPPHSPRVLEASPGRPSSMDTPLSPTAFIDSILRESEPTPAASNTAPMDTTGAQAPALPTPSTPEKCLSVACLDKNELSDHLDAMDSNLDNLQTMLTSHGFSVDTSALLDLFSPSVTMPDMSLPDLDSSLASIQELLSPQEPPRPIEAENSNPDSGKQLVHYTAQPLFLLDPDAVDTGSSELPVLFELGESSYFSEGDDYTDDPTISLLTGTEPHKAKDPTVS

T2 sequence (P49327 whole entry, the tested form may be a part): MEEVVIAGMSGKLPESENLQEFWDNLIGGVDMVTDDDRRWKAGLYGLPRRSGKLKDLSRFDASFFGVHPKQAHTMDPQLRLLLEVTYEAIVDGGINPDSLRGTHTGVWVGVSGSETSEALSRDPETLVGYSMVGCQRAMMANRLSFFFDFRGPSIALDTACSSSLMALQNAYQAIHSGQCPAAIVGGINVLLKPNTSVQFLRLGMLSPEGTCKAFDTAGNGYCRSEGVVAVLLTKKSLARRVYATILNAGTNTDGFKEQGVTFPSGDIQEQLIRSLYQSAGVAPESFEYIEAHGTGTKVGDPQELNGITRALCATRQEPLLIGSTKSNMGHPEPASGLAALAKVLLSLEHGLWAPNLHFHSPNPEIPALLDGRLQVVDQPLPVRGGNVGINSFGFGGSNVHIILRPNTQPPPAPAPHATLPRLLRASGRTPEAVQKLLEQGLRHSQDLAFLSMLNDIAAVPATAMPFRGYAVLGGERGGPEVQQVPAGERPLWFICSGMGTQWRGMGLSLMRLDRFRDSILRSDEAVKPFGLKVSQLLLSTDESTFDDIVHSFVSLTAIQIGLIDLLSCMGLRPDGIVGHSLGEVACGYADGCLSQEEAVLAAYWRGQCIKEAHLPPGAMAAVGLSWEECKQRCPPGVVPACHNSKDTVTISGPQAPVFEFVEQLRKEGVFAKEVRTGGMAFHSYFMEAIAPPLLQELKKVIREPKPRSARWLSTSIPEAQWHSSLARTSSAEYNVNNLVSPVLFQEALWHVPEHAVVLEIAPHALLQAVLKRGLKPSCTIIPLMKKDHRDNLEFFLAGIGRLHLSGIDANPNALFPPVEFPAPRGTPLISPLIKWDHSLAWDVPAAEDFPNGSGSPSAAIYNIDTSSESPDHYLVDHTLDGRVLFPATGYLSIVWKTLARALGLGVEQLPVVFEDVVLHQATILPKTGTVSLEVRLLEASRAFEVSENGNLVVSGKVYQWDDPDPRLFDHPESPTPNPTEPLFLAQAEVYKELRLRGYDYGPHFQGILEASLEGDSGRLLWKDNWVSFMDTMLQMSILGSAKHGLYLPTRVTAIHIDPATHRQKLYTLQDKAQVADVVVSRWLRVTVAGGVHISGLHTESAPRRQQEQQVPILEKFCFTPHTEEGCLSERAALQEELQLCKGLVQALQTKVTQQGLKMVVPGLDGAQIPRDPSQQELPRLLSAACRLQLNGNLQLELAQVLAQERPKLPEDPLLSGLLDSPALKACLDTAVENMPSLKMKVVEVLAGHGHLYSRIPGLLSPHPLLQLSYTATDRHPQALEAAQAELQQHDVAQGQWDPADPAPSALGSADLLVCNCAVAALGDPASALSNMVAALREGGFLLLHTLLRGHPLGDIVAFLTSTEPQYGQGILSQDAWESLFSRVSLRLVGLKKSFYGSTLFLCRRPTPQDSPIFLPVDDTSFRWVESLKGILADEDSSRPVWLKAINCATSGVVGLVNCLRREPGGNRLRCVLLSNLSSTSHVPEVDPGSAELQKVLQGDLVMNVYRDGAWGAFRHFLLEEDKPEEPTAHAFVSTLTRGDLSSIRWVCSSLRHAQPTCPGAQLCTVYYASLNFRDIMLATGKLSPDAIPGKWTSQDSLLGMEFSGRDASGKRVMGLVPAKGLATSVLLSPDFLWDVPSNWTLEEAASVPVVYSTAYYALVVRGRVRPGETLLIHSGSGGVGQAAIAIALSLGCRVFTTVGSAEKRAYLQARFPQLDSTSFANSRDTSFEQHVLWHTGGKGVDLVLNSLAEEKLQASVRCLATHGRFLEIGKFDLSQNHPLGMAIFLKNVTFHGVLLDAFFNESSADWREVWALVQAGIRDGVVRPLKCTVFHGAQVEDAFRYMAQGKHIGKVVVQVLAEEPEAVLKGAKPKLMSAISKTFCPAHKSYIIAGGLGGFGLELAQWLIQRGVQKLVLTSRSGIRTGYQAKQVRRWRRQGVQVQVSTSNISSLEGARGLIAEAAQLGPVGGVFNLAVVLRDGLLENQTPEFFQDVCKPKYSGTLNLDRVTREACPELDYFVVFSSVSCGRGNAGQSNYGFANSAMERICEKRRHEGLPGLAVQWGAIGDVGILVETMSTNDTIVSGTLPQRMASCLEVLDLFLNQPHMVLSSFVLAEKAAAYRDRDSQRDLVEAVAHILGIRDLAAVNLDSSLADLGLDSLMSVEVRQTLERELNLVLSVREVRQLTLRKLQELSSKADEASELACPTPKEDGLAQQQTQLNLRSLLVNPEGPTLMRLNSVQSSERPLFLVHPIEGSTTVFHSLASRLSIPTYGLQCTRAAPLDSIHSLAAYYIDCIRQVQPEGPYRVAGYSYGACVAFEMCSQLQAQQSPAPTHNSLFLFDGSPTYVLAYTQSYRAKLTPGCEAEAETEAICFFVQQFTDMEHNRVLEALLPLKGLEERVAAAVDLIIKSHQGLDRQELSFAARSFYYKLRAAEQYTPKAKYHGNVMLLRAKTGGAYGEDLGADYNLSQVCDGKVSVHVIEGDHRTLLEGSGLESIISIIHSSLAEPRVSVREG
Chain of Cytochrome P450 2D6 (P10635 whole entry, the tested form may be a part): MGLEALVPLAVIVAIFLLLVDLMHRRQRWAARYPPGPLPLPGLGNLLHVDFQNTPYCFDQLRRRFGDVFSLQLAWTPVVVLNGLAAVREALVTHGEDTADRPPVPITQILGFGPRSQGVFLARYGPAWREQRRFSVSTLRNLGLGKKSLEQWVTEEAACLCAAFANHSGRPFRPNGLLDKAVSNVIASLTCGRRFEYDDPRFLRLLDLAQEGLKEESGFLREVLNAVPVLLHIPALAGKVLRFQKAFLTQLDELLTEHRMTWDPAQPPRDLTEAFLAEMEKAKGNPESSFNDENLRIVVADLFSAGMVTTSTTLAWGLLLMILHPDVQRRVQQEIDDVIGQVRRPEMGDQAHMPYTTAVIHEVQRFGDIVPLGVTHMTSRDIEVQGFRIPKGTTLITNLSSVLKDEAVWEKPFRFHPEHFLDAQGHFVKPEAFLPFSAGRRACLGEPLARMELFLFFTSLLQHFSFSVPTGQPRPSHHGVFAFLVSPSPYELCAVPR

In the case of `O=c1c2ccccc2nc(SCc2cn3ccsc3n2)n1-c1ccccc1F`, the IC50 [1] is reported as < 0.4 µM (not active).
In the case of `Cc1cccc(NC(S)=NCCSc2ccc(Cl)cc2)c1`, the EC50 [2] is reported as > 120 µM (not active), the EC50 [3] is reported as 62.6 µM (active) and the EC50 [4] is reported as 84.8 µM (active). The IC50 [1] was 3.87 µM (not active).
In the case of `Cc1ccc(C2C3=C(CC(C)(C)CC3=O)N=C3c4ccccc4C(=O)C32)cc1` (stereo unspecified), the EC50 [5] is reported as 1.01 µM (active), the CC50 [6] is reported as > 40 µM (active) and the EC50 [7] is reported as 24 µM (active).
With `CC(=O)c1c(C)[nH]c(C(=O)OCC(=O)Nc2ccc(Cl)c(S(=O)(=O)N(C)C)c2)c1C` the AC50 [8] was 2.76 µM (active) and the AC50 [9] was 40.4 µM (active).
In the case of `Cc1ccc(C(=O)CN(CCCC(N)=O)S(=O)(=O)c2ccc([N+](=O)[O-])cc2)cc1`, the IC50 (Fatty acid synthase [10]) is reported as 2.83 µM (active) and the IC50 (Fatty acid synthase [11]) is reported as 3.83 µM (active).
In the case of `Cc1nn(-c2ccccc2)nc1C(=O)c1c(C)nn(-c2ccccc2)c1O`, the IC50 (cells) is reported as 12.8 µM (active) and the CC50 [6] is reported as 35.8 µM (active).
In the case of `COc1ccc(/C=C2\N=C(c3ccccc3)N(c3ccc(C(=O)O)cc3)C2=O)cc1OC`, the IC50 [12] is reported as 12.6 µM (active).
In the case of `Cc1nc(SCC(=O)NC(=O)NC2CCCCC2)nc(C)c1C`, the IC50 [12] is reported as 12.7 µM (active).
For `CC(C)=CCc1cc([C@@H]2COc3c(ccc4c3C=CC(C)(C)O4)C2)c(O)cc1O`, the EC50 [13] was 1.8 µM (active), the EC50 (Streptokinase A) was > 150 µM (not active) and the AC50 [14] was 4.11 µM (active). For the same compound, the AC50 [15] was 58.3 µM (active), the AC50 [16] was 3.57 µM (active) and the EC50 (Streptococcus) was 5.23 µM (active). The AC50 [17] was 7.54 µM (active).
In the case of `COc1ccc(NC(=O)CN(c2ccc([N+](=O)[O-])cc2)S(=O)(=O)c2ccccc2)cc1`, the IC50 (Fatty acid synthase [10]) is reported as 3.48 µM (active) and the IC50 (Fatty acid synthase [11]) is reported as 7.77 µM (active).
With `CC(C)C(=O)N1CCN(c2ccccc2N)CC1` the IC50 [1] was 0.734 µM (not active).
With `O=C(COC(=O)c1ccccc1Nc1cccc(C(F)(F)F)c1)NCc1ccco1` the AC50 (Cytochrome P450 2D6) was 10 µM (inconclusive) and the IC50 [18] was 6.38 µM (active).
With `CCCc1cc(C(=O)NN=C(S)NCc2ccccc2)cs1` the IC50 [12] was 12.9 µM (active).
For `CC(=O)Oc1ccc(-c2cccc(C(=O)OCC(=O)N(C)c3ccccc3)c2)cc1`, the EC50 [19] was > 260 µM (inactive) and the IC50 [1] was 14.2 µM (not active).
